Assay: solubility of voriconazole in N-methylpyrrolidone and water / NMP mixtures
Assay type: physicochemical
Method: This can also be used to improve the solubility of voriconazole in aqueous solutions.
0.210 g Voriconazole are dissolved in 50 mL N-Methylpyrrolidone (NMP) using a magnetic stirrer. Further aliquots of 0.305 g, 0.519 g and 1.009 Voriconazole are added to NMP-solution using magnet stirring. Solution I is obtained, composed of […] Voriconazole in 50 mL NMP.
0.45 - 0.55 g Voriconazole are dissolved in NMP according to example 1. After obtaining a clear solution, solutions are made up with water to 20.0 mL.
Therefore, in 20 mL solution, 0.5 g Voriconazole can be dissolved with water / NMP mixtures.

Q: With `C[C@@H](c1ncncc1F)[C@](O)(Cn1cncn1)c1ccc(F)cc1F` [Voriconazole, (2R,3S)-2-(2,4-Difluorophenyl)-3-(5-fluoro-4-pyrimidinyl)-1-(1H-1,2,4-triazol-1-yl)-butan-2-ol] as the molecule, how does the “solubility in N-methylpyrrolidone” value read?
A: extremely high

From patent publication EP2027850A1, “Pharmaceutical compositions containing voriconazole” (SANDOZ AG, priority 2007, dated 2009)
